# Experimental data: publication PMC7442133, “Reduced treatment frequencies with bumped kinase inhibitor 1369 are effective against porcine cystoisosporosis” (International Journal for Parasitology: Drugs and Drug …, 2020)
# Several values for one entry are separate records, joined by “and”; a condition that tells them apart may be missing. Equal values may be shown once.
# What was measured:
# [1] = set-up: species or system piglets; settings: in vivo
# Protocol: In experiment II, additional fecal samples were collected from piglets which shed oocysts after treatment with BKI 1369. Fecal DNA preparation was carried out by established procedures. PCR assays were used for the amplification of the genomic DNA fragments encoding CsCDPK1. PCR assays used primers upstream (166 and 91 base pairs of the start codon) and downstream (89 and 39 base pairs) of the CsCDPK1 stop codon fragment to generate templates for a subsequent nested run. Nested PCR amplification of the 5955 base pair fragment was achieved using the primer pair LIC_CsCDPK_Fwd: […] and LIC_CsCDPK_Rev: […]. PCR amplicons were cloned into TA TOPO 2 vectors (Invitrogen, Carlsbad, California, USA) and sequenced at GENEWIZ Inc. (Seattle, USA) to confirm the presence or absence of mutations that could affect drug sensitivity. Moreover, two piglets from each group were sacrificed at the end of the study (SD 29; 24 days after treatment) and tissue samples (liver, muscle, kidney, backfat, jejunum) were collected and processed similar to the fecal samples in experiment I, except that 20 nM propranolol was used as an internal standard instead of 100 μM, to determine residues of BKI 1369 and its metabolites.
# Tissue and feces from vehicle control treated piglets were used as blanks or standards. Calibration curves for BKI 1369, BKI 1318, and BKI 1817 were prepared by adding 2 μL BKI in dimethylsulfoxide (DMSO) to 18 μL tissue or feces controls to generate nominal concentrations of 0.004, 0.008, 0.02, 0.04, 0.08, 0.2, 0.4, 0.8, 2, 5, 10, and 20 μM. Calibration curves were generated separately for each tissue type and feces.
# 5 μL of tissue homogenate curves and samples were added to tubes that contained 95 μL of 80:20 acetonitrile: water. As an internal standard, propranolol was added to each sample to a final concentration of 20 nM. Samples were dried to completion using a miVac Duo Concentrator (SP Scientific, Pennsylvania, USA) at 35 °C. Sample processing for feces was similar but utilized a slightly different process to concentrate the sample as explained in the methods. Dried Samples were sealed and shipped to the University of Washington for LC-MS/MS analysis.
# [2] = system: C. suis sporozoites; assay: Invasion inhibition: sporozoites pre-incubated with BKI 1369, free merozoites counted 9 dpi in IPEC-1 cultures; format: cell-based, Cystoisospora suis
# Protocol: The laboratory strain C. suis Wien I ([Joachim and Mundt, 2011]), was maintained by passage in suckling piglets every 3–6 months and infectivity in vivo was assessed regularly at the Institute of Parasitology, University of Veterinary Medicine, Vienna. Oocysts were purified from collected feces, brought to sporulation and stored as described elsewhere ([Worliczek et al., 2013]). For in vitro studies, sporozoites were excysted ([Worliczek et al., 2013]), enumerated with a hemocytometer and used immediately for infection of semi-permanent intestinal porcine epithelial cells (IPEC-1). For in vivo studies, sporulated oocysts were washed with tap water and enumerated prior to infection of piglets.
# IPEC-1 cells were maintained in culture medium at 37 °C and 5% CO2 (DHEM/HAM12 supplemented with 5% fetal calf serum and penicillin/streptomycin; Gibco via Thermo Fisher, Vienna, Austria). Cells (4 × 10^4) were used to seed 24-well plates and grown to confluence. […] Cell viability in the presence of DMSO and BKIs was determined by colorimetric cell proliferation (WST-1) assays ([Shrestha et al., 2019]). […]
# In order to test whether BKI 1369 affects initial host cell invasion by C. suis, freshly excysted sporozoites were pre-incubated with BKI 1369 or DMSO for 6 h at 37 °C. […] Readout for both growth (merozoite replication) and invasion-inhibition experiments was microscopical evaluation by counting free merozoites 9 days post-infection (dpi) from culture supernatants. Supernatants were collected and free merozoites were counted in pooled samples at 9 dpi from quadruplicate wells in C-Chip disposable hemocytometers (NanoEnTek/Roth Lactan, Graz, Austria). […]
# Statistical calculations for in vivo trials were performed with RStudio version 1.1.453 (RStudio Team, 2018), descriptive statistics with Microsoft Excel 2010 (Microsoft Inc., Vienna, Austria) and GraphPad Prism version 5.04 for Windows (GraphPad Software, San Diego, California USA). […] In vitro assays were evaluated by t-tests with significance reported at P < 0.05. […]
# [3] = system: C. suis (strain Wien-I); assay: Oocyst excretion of experimentally infected suckling piglets (autofluorescence, modified McMaster); format: in vivo, Cystoisospora suis; settings: for Start of oocyst excretion (study day): controls started SD 8
# [4] = Exp I group B: 1 × 20 mg/kg BW oral, SD 5 (2 dpi)
# [5] = Exp II group W: 1 × 20 mg/kg BW oral, SD 5 (2 dpi)
# [6] = single treatment 20 mg/kg BW 2 dpi
# [7] = single treatment 20 mg/kg BW on the day of infection
smiles,measurement,setting,value
CCOc1ccc2cc(-c3nn(CC4CCNCC4)c4ncnc(N)c34)ccc2n1 [BKI 1318],Residue in liver,[1],"-Samples above LoQ BKI 1318: N/A -Samples above background, but below LoQ BKI 1318: liver from piglet 304 and muscle from piglet 302"
CCOc1ccc2cc(-c3nn(CC4CCN(C)CC4)c4ncnc(N)c34)ccc2n1 [BKI 1369],Pre-incubation concentrations that significantly reduced total merozoite counts at 9 dpi,"[2]; sporozoites pre-incubated 6 h at 37 °C, washed, IPEC-1, P < 0.05 vs DMSO-only and no-treatment",≥ 200 nM
same,Pre-incubation concentrations that completely failed to inhibit host cell invasion,"[2]; sporozoites pre-incubated 6 h at 37 °C, washed, IPEC-1, vs DMSO-only and no-treatment",≤ 100 nM
same,Inhibition of infection in vitro by pre-incubation of sporozoites,[2]; unless treatment was prolonged post-infection,completely failed to inhibit the infection
same,Start of oocyst excretion (study day),[3]; Exp I group A: 1 × 20 mg/kg BW day of infection,11 SD
same,Mean AUC for OpG,"[3]; Exp I group A: 1 × 20 mg/kg BW oral, SD 3 (0 dpi)",4861.8
same,Number of excretion days ± SD (mean duration of oocyst excretion),"[3]; Exp I group A: 1 × 20 mg/kg BW oral, SD 3 (0 dpi), 20 mg/kg",1 ± 1.6 days and 1 ± 1.56 days
same,Piglets that excreted oocysts,"[3]; Exp I group A: 1 × 20 mg/kg BW, day of infection",50%
same,Number of piglets that excreted oocysts,"[3]; Exp I group B: 1 × 20 mg/kg BW 2 dpi, 11 piglets",two
same,Start of oocyst excretion (study day),[3]; Exp I group B: 1 × 20 mg/kg BW 2 dpi,16 SD
same,Mean AUC for OpG,[3]; [4],333
same,Number of excretion days ± SD,[3]; [4],0.45 ± 1.03 days
same,Oocyst excretion (in words),"[3]; Exp I group C: two doses of 20 mg/kg BW at 2 and 4 dpi, 20 mg/kg",completely suppressed oocyst excretion
same,Number of piglets that excreted oocysts,"[3]; Exp II group W: 1 × 20 mg/kg BW 2 dpi, 10 piglets, excreted only once on SD 16",one
same,Mean AUC for OpG,[3]; [5],99.9
same,Number of excretion days ± SD,[3]; [5],0.1 ± 0.32 days
same,Oocyst excretion (in words),[3]; Exp II group W: single dose of 20 mg/kg BW 2 dpi,effectively suppressed
same,Mean AUC for OpG,"[3]; Exp II group X: 1 × 10 mg/kg BW oral, SD 5 (2 dpi)",20129.85
same,Number of excretion days ± SD (mean duration of oocyst excretion),"[3]; Exp II group X: 1 × 10 mg/kg BW oral, SD 5 (2 dpi), 10 mg/kg",1.3 ± 2.7 days and 1.3 ± 2.75 days
same,Piglets that excreted oocysts,"[3]; Exp II group X: 1 × 10 mg/kg BW, 2 dpi",50%
same,Number of piglets that excreted oocysts,[3]; Exp II group X: single dose of 10 mg/kg BW 2 dpi,5 out of 10
same,Mean AUC for OpG,"[3]; Exp II group Y: 1 × 5 mg/kg BW oral, SD 5 (2 dpi)",56610
same,Number of excretion days ± SD (mean duration of oocyst excretion),"[3]; Exp II group Y: 1 × 5 mg/kg BW oral, SD 5 (2 dpi), 5 mg/kg",3.6 ± 1.9 days and 3.6 ± 1.94 days
same,Piglets that excreted oocysts,"[3]; Exp II group Y: 1 × 5 mg/kg BW, 2 dpi",90%
same,Control of parasitic shedding and diarrhea (in words),[3]; single application of 5 mg/kg BW 2 dpi,completely failed to control parasitic shedding and diarrhea
same,Piglets in which oocyst excretion was suppressed,[3]; [6],82%
same,Reduction of quantitative oocyst excretion in those that shed oocysts,[3]; [6],98.4%
same,Piglets in which oocyst excretion was suppressed,[3]; [7],50%
same,Reduction of quantitative oocyst excretion in those that shed oocysts,[3]; [7],95.2%
same,Minimal effective dose against cystoisosporosis,"[3]; single treatment 2 dpi, piglets",10 mg/kg BW
same,"Quantifiable residue values, all tissue types",[1],below 0.2 μM
same,Residue in fat,[1],"above background, but below LoQ"
same,Residue in jejunum,[1],"above background, but below LoQ"
